Residue numbers refer to the chain shown, from its start. Values joined by “and” are separate entries in the source; they are usually repeats but may differ in a detail not shown here. Equal entries are not always repeated.
Columns and labels:
Format in all cases: biochemical
[1] = biological target: T1, rat CAC C-less mutant (C23V/C58V/C89S/C136V/C155V/C283S) (Rattus norvegicus, UniProt P97521, C136V/C155V/C23V/C283S/C58V/C89S); experiment: Carnitine antiport in proteoliposomes, C-less CAC mutant
T1 construct: made in house; host or cells: E. coli C0214 (pMW7, inclusion bodies)
T1 sequence (P97521 1-301 C23V/C58V/C89S/C136V/C155V/C283S): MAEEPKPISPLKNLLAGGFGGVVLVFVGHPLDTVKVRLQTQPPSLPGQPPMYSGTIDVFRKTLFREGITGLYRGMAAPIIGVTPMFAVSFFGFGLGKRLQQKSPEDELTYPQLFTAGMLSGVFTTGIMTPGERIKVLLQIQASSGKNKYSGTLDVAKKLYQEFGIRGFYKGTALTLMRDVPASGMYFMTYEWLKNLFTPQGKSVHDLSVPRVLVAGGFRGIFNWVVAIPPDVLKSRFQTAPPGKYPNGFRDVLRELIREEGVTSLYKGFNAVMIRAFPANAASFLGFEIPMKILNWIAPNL
Procedure: To shed light on the interaction between PAT and CAC and verify if specific Cys residues were involved, transport experiments on the recombinant rat and human WT CAC and CAC’s rat Cys mutants were performed. As in the case of the native protein, transport activities were measured as [^3H]-carnitine/carnitine antiport in proteoliposomes. […] The PAT inhibition of the WT recombinant protein was only slightly greater compared to the native protein, although compounds and other molecular systems that affect the mycotoxin binding to the native CAC were absent (see above). For identifying the residues involved in the PAT interaction, site-directed Cys mutants were tested for inhibition (Figure 2). […] The choice of this last mutant was due to the proximity of C155 to C136 during some steps of the substrate translocation mechanism. […]
(§1) For the transport assay, 550 μL of proteoliposomes were passed through a Sephadex G-75 column in order to remove the external substrate. […] After finishing the transport reaction, the external radiolabel substrate was removed by gel filtration chromatography (Sephadex G-75), and the intraliposomal radioactivity was measured by liquid scintillation. Transport was measured at 25 °C. […] Transport rates were measured in 10 min, i.e., within the initial linear range of the time course.

recombinant rat WT CAC = biological target: T2, recombinant rat WT CAC (Rattus norvegicus, UniProt P97521); experiment: [3H]-carnitine/carnitine antiport in proteoliposomes with recombinant rat WT CAC
T2 construct: made in house; host or cells: E. coli C0214 (pMW7, inclusion bodies)
T2 sequence (P97521 1-301): T1 sequence (P97521 1-301 C23V/C58V/C89S/C136V/C155V/C283S) with V23C, V58C, S89C, V136C, V155C, S283C
Procedure: To shed light on the interaction between PAT and CAC and verify if specific Cys residues were involved, transport experiments on the recombinant rat and human WT CAC and CAC’s rat Cys mutants were performed. As in the case of the native protein, transport activities were measured as [^3H]-carnitine/carnitine antiport in proteoliposomes. […] The PAT inhibition of the WT recombinant protein was only slightly greater compared to the native protein, although compounds and other molecular systems that affect the mycotoxin binding to the native CAC were absent (see above). For identifying the residues involved in the PAT interaction, site-directed Cys mutants were tested for inhibition (Figure 2). […] The choice of this last mutant was due to the proximity of C155 to C136 during some steps of the substrate translocation mechanism. […] To confirm the main role played by C136 in the carrier PAT-induced impairment, the single mutant C155S and the mutant containing only C136 residue (C23V/C58V/C89S/C155V/C283S) were examined (Figure 2). […] Finally, no effect of the mycotoxin was observed on the C-less mutant (C23V/C58V/C89S/C136V/C155V/C283S), definitively excluding the participation of other residues in the interaction with PAT.
Figure 2 Dose-response analysis of the PAT inhibition of the CAC recombinant proteins. […] The data are expressed as a percentage of the controls (no PAT addition) and are means ± SD of three independent experiments.
The pMW7-WT rat or human CAC recombinant plasmids were used for over-expressing the rat and human CAC, as previously described. To introduce the mutations on the rat CAC recombinant plasmid, the overlap extension method was used as described, introducing the NdeI and HindIII restriction sites. The PCR products were purified using the QIAEX II Gel Extraction Kit (QIAGEN, Hilden, Germany), digested with NdeI and HindIII, and then ligated into the pMW7. All mutations were verified by DNA sequencing. The resulting plasmid constructs were transformed into E. coli C0214. Overexpression, inclusion body fraction preparation, and purification of the CAC proteins were performed as previously described.
The recombinant CAC proteins were reconstituted in proteoliposomes as previously described. […]
as §1

rat CAC mutant C155S = biological target: T3, rat CAC mutant C155S (Rattus norvegicus, UniProt P97521, C155S); experiment: Carnitine antiport in proteoliposomes, CAC mutant C155S
T3 construct: made in house; host or cells: E. coli C0214 (pMW7, inclusion bodies)
T3 sequence (P97521 1-301 C155S): T1 sequence (P97521 1-301 C23V/C58V/C89S/C136V/C155V/C283S) with V23C, V58C, S89C, V136C, V155S, S283C
Procedure: To shed light on the interaction between PAT and CAC and verify if specific Cys residues were involved, transport experiments on the recombinant rat and human WT CAC and CAC’s rat Cys mutants were performed. As in the case of the native protein, transport activities were measured as [^3H]-carnitine/carnitine antiport in proteoliposomes. […] The PAT inhibition of the WT recombinant protein was only slightly greater compared to the native protein, although compounds and other molecular systems that affect the mycotoxin binding to the native CAC were absent (see above). For identifying the residues involved in the PAT interaction, site-directed Cys mutants were tested for inhibition (Figure 2). […]
Figure 2 Dose-response analysis of the PAT inhibition of the CAC recombinant proteins. […] The data are expressed as a percentage of the controls (no PAT addition) and are means ± SD of three independent experiments. […]
as §1

O=C1C=C2C(=CCOC2O)O1 (stereo not drawn) [PAT, 4-hydroxy-4H-furo [3,2c] pyran-2 [6H] -one]
effect on transport activity [1]: no effect
reversal of inhibition by DTE (recombinant rat WT CAC; 50 μM PAT 30 min, 5 mM DTE, recombinant WT): not reversed
substrate protection: effect of carnitine on PAT inhibition (recombinant rat WT CAC; carnitine 0.5 and 10 mM added before 50 μM PAT): partially prevented
type of inhibition (recombinant rat WT CAC; protein form not specified): competitive
IC50 (recombinant rat WT CAC; rat recombinant WT, PAT 30 min, read-out: IC50 of CAC WT inhibition): 47 µM and ~50 µM
IC50 (rat CAC mutant C155S): comparable to the WT
